Where two headings read alike, the source gives them in different places. Blank lines part the entries; values can stand above or below the compound they belong to.
Key:
Experiment in all cases: biochemical
TAF1 = TAF1 (Homo sapiens, UniProt P21675)
DCAMKL1 = target: T1, DCAMKL1 (Homo sapiens, UniProt O15075)
T1 sequence (O15075 1-740): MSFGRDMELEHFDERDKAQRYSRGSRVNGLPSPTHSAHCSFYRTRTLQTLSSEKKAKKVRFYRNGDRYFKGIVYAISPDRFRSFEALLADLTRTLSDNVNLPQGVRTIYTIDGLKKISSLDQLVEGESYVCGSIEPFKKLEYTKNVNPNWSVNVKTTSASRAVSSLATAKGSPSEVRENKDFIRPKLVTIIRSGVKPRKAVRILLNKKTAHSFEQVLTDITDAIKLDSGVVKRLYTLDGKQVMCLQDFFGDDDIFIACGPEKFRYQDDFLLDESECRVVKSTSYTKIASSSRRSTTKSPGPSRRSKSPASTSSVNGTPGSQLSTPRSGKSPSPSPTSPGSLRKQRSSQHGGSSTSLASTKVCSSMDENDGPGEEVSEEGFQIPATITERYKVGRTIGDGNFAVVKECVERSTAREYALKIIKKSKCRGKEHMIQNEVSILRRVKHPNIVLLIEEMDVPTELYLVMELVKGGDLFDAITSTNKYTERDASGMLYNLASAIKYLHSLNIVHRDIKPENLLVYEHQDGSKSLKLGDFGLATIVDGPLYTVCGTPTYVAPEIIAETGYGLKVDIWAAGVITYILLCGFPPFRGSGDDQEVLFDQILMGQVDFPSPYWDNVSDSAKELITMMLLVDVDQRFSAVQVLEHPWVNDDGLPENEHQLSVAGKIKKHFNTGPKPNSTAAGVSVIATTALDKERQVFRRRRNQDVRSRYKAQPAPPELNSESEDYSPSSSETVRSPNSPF

MAPKAPK2 = MAPKAPK2 (Homo sapiens, UniProt P49137)
MAPKAPK2, sequence (P49137 whole entry): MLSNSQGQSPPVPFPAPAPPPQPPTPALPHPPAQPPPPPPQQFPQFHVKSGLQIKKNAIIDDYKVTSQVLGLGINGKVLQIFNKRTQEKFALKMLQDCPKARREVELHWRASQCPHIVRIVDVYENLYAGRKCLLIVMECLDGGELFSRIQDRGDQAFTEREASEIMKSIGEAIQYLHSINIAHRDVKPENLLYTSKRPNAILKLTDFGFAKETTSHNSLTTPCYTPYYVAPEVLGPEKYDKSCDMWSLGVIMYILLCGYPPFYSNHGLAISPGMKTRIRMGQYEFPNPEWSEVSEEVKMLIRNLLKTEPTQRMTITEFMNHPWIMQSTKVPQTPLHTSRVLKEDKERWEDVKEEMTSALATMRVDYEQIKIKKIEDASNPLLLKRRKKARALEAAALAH

ULK3 = target: T2, ULK3 (Homo sapiens, UniProt Q6PHR2)
T2 sequence (Q6PHR2 1-472): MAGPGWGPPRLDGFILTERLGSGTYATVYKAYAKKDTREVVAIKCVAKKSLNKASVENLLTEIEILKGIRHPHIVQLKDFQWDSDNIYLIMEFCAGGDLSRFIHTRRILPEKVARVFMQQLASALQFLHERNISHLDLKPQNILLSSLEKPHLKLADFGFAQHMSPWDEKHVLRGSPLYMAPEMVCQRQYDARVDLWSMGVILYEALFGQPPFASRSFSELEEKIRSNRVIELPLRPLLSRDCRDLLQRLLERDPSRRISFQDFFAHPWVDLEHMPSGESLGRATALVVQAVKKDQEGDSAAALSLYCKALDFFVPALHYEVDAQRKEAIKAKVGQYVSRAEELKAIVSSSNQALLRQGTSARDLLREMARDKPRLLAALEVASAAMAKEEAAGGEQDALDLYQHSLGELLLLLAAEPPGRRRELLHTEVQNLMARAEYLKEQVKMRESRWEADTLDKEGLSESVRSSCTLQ

NEK2 = target: T3, NEK2 (Homo sapiens, UniProt P51955)
T3 sequence (P51955 1-445): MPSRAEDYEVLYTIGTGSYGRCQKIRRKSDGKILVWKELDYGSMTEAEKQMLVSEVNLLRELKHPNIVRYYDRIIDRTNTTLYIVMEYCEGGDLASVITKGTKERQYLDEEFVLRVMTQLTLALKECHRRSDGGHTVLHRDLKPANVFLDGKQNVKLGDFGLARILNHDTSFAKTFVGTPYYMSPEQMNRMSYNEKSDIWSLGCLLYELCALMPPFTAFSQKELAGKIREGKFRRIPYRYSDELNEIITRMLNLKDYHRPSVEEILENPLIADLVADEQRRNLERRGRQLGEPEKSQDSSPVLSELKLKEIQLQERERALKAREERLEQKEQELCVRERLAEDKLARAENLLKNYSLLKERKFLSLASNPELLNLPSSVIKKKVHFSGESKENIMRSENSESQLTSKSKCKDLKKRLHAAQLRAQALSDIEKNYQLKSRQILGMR

GPRK5 = GPRK5 (Homo sapiens, UniProt P34947)
GPRK5, sequence (P34947 whole entry): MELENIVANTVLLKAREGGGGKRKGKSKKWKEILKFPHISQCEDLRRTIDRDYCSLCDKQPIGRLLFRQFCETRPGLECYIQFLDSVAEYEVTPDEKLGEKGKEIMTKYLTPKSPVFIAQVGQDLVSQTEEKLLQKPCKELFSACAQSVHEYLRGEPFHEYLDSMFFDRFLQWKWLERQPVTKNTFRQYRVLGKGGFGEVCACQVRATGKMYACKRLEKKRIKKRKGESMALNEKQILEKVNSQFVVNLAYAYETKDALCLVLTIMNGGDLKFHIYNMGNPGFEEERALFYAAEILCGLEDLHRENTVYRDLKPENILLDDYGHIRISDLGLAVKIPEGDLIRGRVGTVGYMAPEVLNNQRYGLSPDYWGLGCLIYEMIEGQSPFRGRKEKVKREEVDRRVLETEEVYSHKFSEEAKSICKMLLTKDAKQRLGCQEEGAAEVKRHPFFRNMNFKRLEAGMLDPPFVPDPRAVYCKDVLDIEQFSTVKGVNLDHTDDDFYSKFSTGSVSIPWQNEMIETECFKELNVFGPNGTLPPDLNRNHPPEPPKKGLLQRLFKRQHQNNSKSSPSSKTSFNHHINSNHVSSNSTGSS

TLK1 = target: T4, TLK1 (Homo sapiens, UniProt Q9UKI8)
T4 sequence (Q9UKI8 1-766): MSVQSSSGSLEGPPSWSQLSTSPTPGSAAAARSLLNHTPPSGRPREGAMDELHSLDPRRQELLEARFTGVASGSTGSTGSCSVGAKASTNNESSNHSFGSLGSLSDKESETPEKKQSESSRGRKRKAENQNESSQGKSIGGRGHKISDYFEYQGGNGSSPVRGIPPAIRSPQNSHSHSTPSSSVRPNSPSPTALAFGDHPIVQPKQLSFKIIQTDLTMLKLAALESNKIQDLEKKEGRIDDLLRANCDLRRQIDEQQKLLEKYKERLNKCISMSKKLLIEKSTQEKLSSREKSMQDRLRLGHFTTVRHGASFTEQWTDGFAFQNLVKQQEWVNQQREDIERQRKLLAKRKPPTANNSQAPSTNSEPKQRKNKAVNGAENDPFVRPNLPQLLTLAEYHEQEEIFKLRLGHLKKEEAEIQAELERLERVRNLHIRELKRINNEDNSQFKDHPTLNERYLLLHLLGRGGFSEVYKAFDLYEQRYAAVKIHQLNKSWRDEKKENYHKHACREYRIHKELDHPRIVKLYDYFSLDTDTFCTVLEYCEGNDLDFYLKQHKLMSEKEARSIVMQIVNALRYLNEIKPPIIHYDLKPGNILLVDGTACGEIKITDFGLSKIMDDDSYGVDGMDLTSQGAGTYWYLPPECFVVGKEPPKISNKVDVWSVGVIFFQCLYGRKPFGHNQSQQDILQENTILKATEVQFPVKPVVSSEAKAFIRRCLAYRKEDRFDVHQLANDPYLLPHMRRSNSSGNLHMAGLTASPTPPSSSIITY

CaMK2d = CaMK2d (Homo sapiens, UniProt Q13557)
CaMK2d, sequence (Q13557 whole entry): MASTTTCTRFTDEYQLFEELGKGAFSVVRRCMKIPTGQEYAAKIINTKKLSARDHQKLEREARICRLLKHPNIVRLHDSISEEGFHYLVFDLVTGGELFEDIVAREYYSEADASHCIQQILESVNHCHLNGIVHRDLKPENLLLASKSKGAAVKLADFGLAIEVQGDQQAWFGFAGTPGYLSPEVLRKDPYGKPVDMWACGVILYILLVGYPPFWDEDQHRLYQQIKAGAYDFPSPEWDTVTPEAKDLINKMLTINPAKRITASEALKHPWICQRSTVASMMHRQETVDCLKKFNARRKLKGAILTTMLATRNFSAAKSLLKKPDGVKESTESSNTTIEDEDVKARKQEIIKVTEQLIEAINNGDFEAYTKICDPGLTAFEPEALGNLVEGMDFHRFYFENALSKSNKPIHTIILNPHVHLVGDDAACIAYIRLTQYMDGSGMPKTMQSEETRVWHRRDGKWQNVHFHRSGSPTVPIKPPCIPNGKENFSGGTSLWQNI

TAF1, sequence (P21675 whole entry): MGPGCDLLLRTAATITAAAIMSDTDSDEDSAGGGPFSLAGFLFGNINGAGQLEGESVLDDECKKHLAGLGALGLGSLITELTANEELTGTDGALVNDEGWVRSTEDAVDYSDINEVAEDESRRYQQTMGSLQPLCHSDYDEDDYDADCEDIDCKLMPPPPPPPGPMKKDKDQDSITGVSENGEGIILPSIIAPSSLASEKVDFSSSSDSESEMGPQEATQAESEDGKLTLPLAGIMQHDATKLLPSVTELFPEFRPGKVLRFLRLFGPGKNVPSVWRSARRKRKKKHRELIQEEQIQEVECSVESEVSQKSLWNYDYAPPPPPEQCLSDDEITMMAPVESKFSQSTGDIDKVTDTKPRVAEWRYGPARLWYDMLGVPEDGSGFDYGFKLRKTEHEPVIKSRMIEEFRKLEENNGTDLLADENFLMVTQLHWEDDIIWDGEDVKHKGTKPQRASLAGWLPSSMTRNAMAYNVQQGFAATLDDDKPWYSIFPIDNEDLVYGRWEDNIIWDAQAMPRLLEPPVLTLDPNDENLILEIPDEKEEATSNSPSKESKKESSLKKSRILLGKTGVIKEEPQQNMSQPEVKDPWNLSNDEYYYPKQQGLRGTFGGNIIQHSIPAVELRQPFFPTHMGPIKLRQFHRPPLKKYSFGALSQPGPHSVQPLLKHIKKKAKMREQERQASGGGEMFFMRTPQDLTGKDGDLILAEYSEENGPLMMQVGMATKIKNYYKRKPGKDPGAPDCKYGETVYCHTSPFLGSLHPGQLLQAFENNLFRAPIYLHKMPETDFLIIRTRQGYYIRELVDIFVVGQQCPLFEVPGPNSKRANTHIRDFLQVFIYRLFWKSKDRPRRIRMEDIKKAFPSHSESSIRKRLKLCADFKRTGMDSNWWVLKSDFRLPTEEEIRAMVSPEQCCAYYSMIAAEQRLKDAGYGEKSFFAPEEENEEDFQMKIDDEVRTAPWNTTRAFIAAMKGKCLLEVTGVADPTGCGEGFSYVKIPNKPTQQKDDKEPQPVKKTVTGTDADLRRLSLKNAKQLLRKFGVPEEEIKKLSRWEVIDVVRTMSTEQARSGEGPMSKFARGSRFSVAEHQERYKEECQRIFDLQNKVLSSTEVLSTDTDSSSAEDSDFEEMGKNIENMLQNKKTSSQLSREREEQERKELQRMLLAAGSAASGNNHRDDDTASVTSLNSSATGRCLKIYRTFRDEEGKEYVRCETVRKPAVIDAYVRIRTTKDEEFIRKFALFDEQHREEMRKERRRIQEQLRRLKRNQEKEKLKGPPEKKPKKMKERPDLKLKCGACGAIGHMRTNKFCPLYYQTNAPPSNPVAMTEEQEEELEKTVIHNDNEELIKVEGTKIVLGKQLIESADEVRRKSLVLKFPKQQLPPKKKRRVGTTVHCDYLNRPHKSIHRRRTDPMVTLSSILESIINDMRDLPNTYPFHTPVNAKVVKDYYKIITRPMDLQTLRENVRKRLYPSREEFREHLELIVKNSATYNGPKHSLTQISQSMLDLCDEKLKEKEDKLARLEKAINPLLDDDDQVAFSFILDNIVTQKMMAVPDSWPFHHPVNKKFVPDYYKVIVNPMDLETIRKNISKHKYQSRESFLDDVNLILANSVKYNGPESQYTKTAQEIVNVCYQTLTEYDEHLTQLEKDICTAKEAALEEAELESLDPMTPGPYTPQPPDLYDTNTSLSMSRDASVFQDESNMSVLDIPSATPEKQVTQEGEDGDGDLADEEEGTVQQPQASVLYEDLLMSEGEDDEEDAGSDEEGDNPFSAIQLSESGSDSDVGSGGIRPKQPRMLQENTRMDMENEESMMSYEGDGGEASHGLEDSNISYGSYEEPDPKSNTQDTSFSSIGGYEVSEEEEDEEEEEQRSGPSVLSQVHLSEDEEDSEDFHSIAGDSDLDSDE

ΔTm at 10 µM (TAF1; read-out: dTm 8): -0.7 °C
ΔTm at 10 µM (DCAMKL1; read-out: dTm 8): 1.2 °C
ΔTm at 10 µM (MAPKAPK2; read-out: dTm 8): 0 °C
ΔTm at 10 µM (ULK3; read-out: dTm 8): 1 °C
ΔTm at 10 µM (NEK2; read-out: dTm 8): 1.9 °C
ΔTm at 10 µM (GPRK5; read-out: dTm 8): 0.6 °C
ΔTm at 10 µM (TLK1; read-out: dTm 8): 1 °C
ΔTm at 10 µM (CaMK2d; read-out: dTm 8): 0.4 °C
SMILES: CNc1ncc2cc(-c3cc(Cl)ccc3Cl)c(=O)n(CCCCN)c2n1 [compound 8, 8-(4-Aminobutyl)-6-(2,5-dichlorophenyl)-2-(methylamino)pyrido[2,3-d]pyrimidin-7(8H)-one]

ΔTm at 10 µM (TAF1; read-out: dTm 11): -0.8 °C
ΔTm at 10 µM (DCAMKL1; read-out: dTm 11): 1.1 °C
ΔTm at 10 µM (MAPKAPK2; read-out: dTm 11): 0 °C
ΔTm at 10 µM (ULK3; read-out: dTm 11): 1.3 °C
ΔTm at 10 µM (NEK2; read-out: dTm 11): 1.7 °C
ΔTm at 10 µM (GPRK5; read-out: dTm 11): 0.7 °C
ΔTm at 10 µM (TLK1; read-out: dTm 11): 1 °C
ΔTm at 10 µM (CaMK2d; read-out: dTm 11): 0.2 °C
SMILES: CNc1ncc2cc(-c3cc(Br)ccc3Br)c(=O)n(CCCCN)c2n1 [compound 11, 8-(4-Aminobutyl)-6-(2,5-dibromophenyl)-2-(methylamino)pyrido[2,3-d]pyrimidin-7(8H)-one]

ΔTm at 10 µM (TAF1; read-out: dTm 9): -0.7 °C
ΔTm at 10 µM (DCAMKL1; read-out: dTm 9): 0.5 °C
ΔTm at 10 µM (MAPKAPK2; read-out: dTm 9): -0.1 °C
ΔTm at 10 µM (ULK3; read-out: dTm 9): 0.6 °C
ΔTm at 10 µM (NEK2; read-out: dTm 9): 1.3 °C
ΔTm at 10 µM (GPRK5; read-out: dTm 9): 0.3 °C
ΔTm at 10 µM (TLK1; read-out: dTm 9): 0.7 °C
ΔTm at 10 µM (CaMK2d; read-out: dTm 9): 0.2 °C
SMILES: CNc1ncc2cc(-c3cc(C(F)(F)F)ccc3Cl)c(=O)n(CCCCN)c2n1 [compound 9, 8-(4-Aminobutyl)-6-(2-chloro-5-(trifluoromethyl)phenyl)-2-(methylamino)pyrido[2,3-d]pyrimidin-7(8H)-one]

ΔTm at 10 µM (TAF1; read-out: dTm 10): -0.8 °C
ΔTm at 10 µM (DCAMKL1; read-out: dTm 10): 0.9 °C
ΔTm at 10 µM (MAPKAPK2; read-out: dTm 10): 0 °C
ΔTm at 10 µM (ULK3; read-out: dTm 10): 1.1 °C
ΔTm at 10 µM (NEK2; read-out: dTm 10): 2.1 °C
ΔTm at 10 µM (GPRK5; read-out: dTm 10): 0.6 °C
ΔTm at 10 µM (TLK1; read-out: dTm 10): 0.5 °C
ΔTm at 10 µM (CaMK2d; read-out: dTm 10): 0.5 °C
SMILES: CNc1ncc2cc(-c3cc(Cl)ccc3Br)c(=O)n(CCCCN)c2n1 [compound 10, 8-(4-Aminobutyl)-6-(2-bromo-5-chlorophenyl)-2-(methylamino)pyrido[2,3-d]pyrimidin-7(8H)-one]

ΔTm at 10 µM (TAF1; read-out: dTm 12): 0.4 °C
ΔTm at 10 µM (DCAMKL1; read-out: dTm 12): -1.6 °C
ΔTm at 10 µM (MAPKAPK2; read-out: dTm 12): -0.3 °C
ΔTm at 10 µM (ULK3; read-out: dTm 12): 6.7 °C
ΔTm at 10 µM (NEK2; read-out: dTm 12): 7.2 °C
ΔTm at 10 µM (GPRK5; read-out: dTm 12): -0.4 °C
ΔTm at 10 µM (TLK1; read-out: dTm 12): -1.5 °C
ΔTm at 10 µM (CaMK2d; read-out: dTm 12): -0.2 °C
SMILES: CNc1ncc2cc(-c3cc(F)c(-c4cccc(C)n4)cc3F)c(=O)n(CCCCN)c2n1 [compound 12, 8-(4-Aminobutyl)-6-(2,5-difluoro-4-(6-methylpyridin-2-yl)phenyl)-2-(methylamino)pyrido[2,3-d]pyrimidin-7(8H)-one]

Source: doi:10.1101/2023.03.24.534094v2 (biorxiv, 2023)
